Structures can show the parent of a compound that is named as a salt. A value given as a limit tells only on which side of the number the result lay.

This note sets out measurements from patent US12091409B2, “Ether linked triazoles as NRF2 activators” (ASTEX THERAPEUTICS LIMITED, priority 2016, dated 2024).

The first assay has as its system NQO1 specific enzyme activity in BEAS-2B cells (marker for NRF2 activation). Put plainly: BEAS-2B NQO1 MTT Assay. The class given is cell-based. The settings on record: Homo sapiens, BEAS-2B, 48 h, NQO1 specific activity induction, 48 hours with compound. An outline of the steps: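 Cells plated overnight at 37° C., 5% CO2, then exposed to compound for 48 hours. NQO1 activity read in crude lysates with MTT cocktail as kinetic absorbance at 570 nm over 30 minutes. pEC50 from Delta OD/min versus log concentration with a 3-parameter fit.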
With `CCCn1cc(COC(c2ccc(C)c(CN3C[C@@H](C)Oc4ccccc4S3(=O)=O)c2)C(C)(C)C(=O)O)nn1` (stereo partly drawn) [Example 8, 2,2-Dimethyl-3-(4-methyl-3-(((R)-4-methyl-1,1-dioxido-3,4-dihydro-2H-benzo[b][1,4,5]oxathiazepin-2-yl)methyl)phenyl)-3-((1-propyl-1H-1,2,3-triazol-4-yl)methoxy)propanoic acid], the EC50 lay within 1 to 10 nM. Still for that read-out and setting: then `CC[C@@H]1CN(Cc2cc([C@@H](OCc3cn(C)nn3)C(C)(C)C(=O)O)ccc2C)S(=O)(=O)c2ccccc2O1` [Example 120, (R)-3-(3-(((R)-4-Ethyl-1,1-dioxido-3,4-dihydro-2H-benzo[b][1,4,5]oxathiazepin-2-yl)methyl)-4-methylphenyl)-2,2-dimethyl-3-((1-methyl-1H-1,2,3-triazol-4-yl)methoxy)propanoic acid], with below 1 nM; and `CCCn1cc(COC(c2ccc(C)c(CN3CC(C)(C)Oc4ccccc4S3(=O)=O)c2)C(C)(C)C(=O)O)nn1` (centres unmarked) [Example 9, 3-(3-((4,4-Dimethyl-1,1-dioxido-3,4-dihydo-2H-benzo[b][1,4]oxathiazepin-2-yl)methyl)-4-methylphenyl)-2,2-dimethyl-3-((1-propyl-1H-1,2,3-triazol-4-yl)methoxy)-propanoic acid], with 1 to 10 nM.

Turning to `CC[C@@H]1CN(Cc2cc(C(OCc3cn(CC)nn3)C(F)(F)C(=O)O)ccc2C)S(=O)(=O)c2ccccc2O1` (stereo partly drawn) [Example 60, 3-(3-(((R)-4-Ethyl-1,1-dioxido-3,4-dihydro-2H-benzo[b][1,4,5]oxathiazepin-2-yl)methyl)-4-methylphenyl)-3-((1-ethyl-1H-1,2,3-triazol-4-yl)methoxy)-2,2-difluoropropanoic acid], the EC50 fell in the range of 100 to 1000 nM. Same read-out and setting: then `CCCn1cc(CO[C@H](c2ccc(C)c(CN3C[C@H](C)Cc4ccc(C(F)(F)F)cc4S3(=O)=O)c2)C(C)(C)C(=O)O)nn1` [Example 79, (R)-2,2-dimethyl-3-(4-methyl-3-(((R)-4-methyl-1,1-dioxido-8-(trifluoromethyl)-4,5-dihydrobenzo[f][1,2]thiazepin-2(3H)-yl)methyl)phenyl)-3-((1-propyl-1H-1,2,3-triazol-4-yl)methoxy)propanoic acid], with 1 to 10 nM; and `CCn1cc(CO[C@H](c2ccc(C)c(CN3C[C@H](C)Cc4ccncc4S3(=O)=O)c2)C(C)(C)C(=O)O)nn1` [Example 66, (3R)-((1-ethyl-1H-1,2,3-triazol-4-yl)methoxy)-2,2-dimethyl-3-(4-methyl-3-(((R)-4-methyl-1,1-dioxido-4,5-dihydropyrido[4,3-f][1,2]thiazepin-2(3H)-yl)methyl)phenyl)propanoic acid], with 100 to 1000 nM; and `CCn1cc(CO[C@@H](c2ccc(C)c(CN3C[C@@H](C)Cc4ccccc4S3(=O)=O)c2)C(C)(C)C(=O)O)nn1` [Example 75, (3S)-((1-ethyl-1H-1,2,3-triazol-4-yl)methoxy)-2,2-dimethyl-3-(4-methyl-3-(((S)-4-methyl-1,1-dioxido-4,5-dihydrobenzo[f][1,2]thiazepin-2(3H)-yl)methyl)phenyl)propanoic acid], with 1 to 10 nM. Still for that read-out and setting: with `Cc1ccc(C(OCc2cn(CC3CCN(C(=O)c4ccccc4)CC3)nn2)C(C)(C)C(=O)O)cc1CN1C[C@@H](C)Oc2ccccc2S1(=O)=O` (stereo partly drawn) [Example 31, 3-((1-((1-Benzoylpiperidin-4-yl)methyl)-1H-1,2,3-triazol-4-yl)methoxy)-2,2-dimethyl-3-(4-methyl-3-(((R)-4-methyl-1,1-dioxido-3,4-dihydro-2H-benzo[b][1,4,5]oxathiazepin-2-yl)methyl)phenyl)propanoic acid] the figure was 10 to 100 nM. The same measure, in the same setting: with `Cc1ccc(C(OCc2cn(Cc3cccc(Cn4cc(CCC(=O)O)nn4)c3)nn2)C(C)(C)C(=O)O)cc1CN1C[C@@H](C)Oc2ccccc2S1(=O)=O` (stereo partly drawn) [Example 45, 3-((1-(3-((4-(2-Carboxyethyl)-1H-1,2,3-triazol-1-yl)methyl)benzyl)-1H-1,2,3-triazol-4-yl)methoxy)-2,2-dimethyl-3-(4-methyl-3-(((R)-4-methyl-1,1-dioxido-3,4-dihydro-2H-benzo[b][1,4,5]oxathiazepin-2-yl)methyl)phenyl)propanoic acid] the figure was 100 to 1000 nM; with `CC(=O)N1CCC(Cn2cc(COC(c3ccc(C)c(CN4C[C@@H](C)Oc5ccccc5S4(=O)=O)c3)C(C)(C)C(=O)O)nn2)CC1` (stereo partly drawn) [Example 32, 3-((1-((1-Acetylpiperidin-4-yl)methyl)-1H-1,2,3-triazol-4-yl)methoxy)-2,2-dimethyl-3-(4-methyl-3-(((R)-4-methyl-1,1-dioxido-3,4-dihydro-2H-benzo[b][1,4,5]oxathiazepin-2-yl)methyl)phenyl)propanoic acid], 10 to 100 nM.

In the case of `CCn1cc(CO[C@H](c2ccc(C)c(CN3C[C@@H](C)Cc4ccccc4S3(=O)=O)c2)C(C)(C)C(=O)O)nn1` [Example 84], the EC50 is below 1 nM.

For the molecule `Cc1ccc(C(OCc2cn(C3CCCCC3)nn2)C(C)(C)C(=O)O)cc1CN1C[C@@H](C)Oc2ccccc2S1(=O)=O` (stereo partly drawn) [Example 17, 3-((1-Cyclohexyl-1H-1,2,3-triazol-4-yl)methoxy)-2,2-dimethyl-3-(4-methyl-3-(((R)-4-methyl-1,1-dioxido-3,4-dihydro-2H-benzo[b][1,4,5]oxathiazepin-2-yl)methyl)phenyl)propanoic acid], the EC50 is 1 to 10 nM. Same read-out and setting: with `CC[C@@H]1CN(Cc2cc(C(OCc3cn(Cc4ccccc4)nn3)C(C)(C)C(=O)O)ccc2C)S(=O)(=O)c2ccccc2O1` (stereo partly drawn) [Example 7, 3-((1-Benzyl-1H-1,2,3-triazol-4-yl)methoxy)-3-(3-(((R)-4-ethyl-1,1-dioxido-3,4-dihydro-2H-benzo[b][1,4,5]oxathiazepin-2-yl)methyl)-4-methylphenyl)-2,2-dimethylpropanoic acid] the figure was below 1 nM. Still for that read-out and setting: then `CC[C@@H]1CN(Cc2cc(C(OCc3cn(CCOC)nn3)C(C)(C)C(=O)O)ccc2C)S(=O)(=O)c2ccccc2O1` (stereo partly drawn) [Example 106, 3-(3-(((R)-4-ethyl-1,1-dioxido-3,4-dihydro-2H-benzo[b][1,4,5]oxathiazepin-2-yl)methyl)-4-methylphenyl)-3-((1-(2-methoxyethyl)-1H-1,2,3-triazol-4-yl)methoxy)-2,2-dimethylpropanoic acid], with below 1 nM; and `COCCOCCn1cc(CO[C@H](c2ccc(C)c(CN3C[C@@H](C)Oc4ccccc4S3(=O)=O)c2)C(C)(C)C(=O)O)nn1` [Example 80, (R)-3-((1-(2-(2-methoxyethoxy)ethyl)-1H-1,2,3-triazol-4-yl)methoxy)-2,2-dimethyl-3-(4-methyl-3-(((R)-4-methyl-1,1-dioxido-3,4-dihydro-2H-benzo[b][1,4,5]oxathiazepin-2-yl)methyl)phenyl)propanoic acid], with 1 to 10 nM. The same measure, in the same setting: then `Cc1ccc(C(OCc2c[nH]nn2)C(C)(C)C(=O)O)cc1CN1C[C@@H](C)Oc2ccccc2S1(=O)=O` (stereo partly drawn) [Example 101, 3-((1H-1,2,3-triazol-4-yl)methoxy)-2,2-dimethyl-3-(4-methyl-3-(((R)-4-methyl-1,1-dioxido-3,4-dihydro-2H-benzo[b][1,4,5]oxathiazepin-2-yl)methyl)phenyl)propanoic acid], with 10 to 100 nM. For `CC[C@@H]1CN(Cc2cc([C@@H](OCc3cn(CC)nn3)C(C)(C)C(=O)O)ccc2C)Cc2ncccc2O1` [Example 113, (R)-3-((1-Ethyl-1H-1,2,3-triazol-4-yl)methoxy)-3-(3-(((R)-2-ethyl-2,3-dihydropyrido[2,3-f][1,4]oxazepin-4(5H)-yl)methyl)-4-methylphenyl)-2,2-dimethylpropanoic Acid, Trifluoroacetate], the EC50 was 10 to 100 nM.

`CC[C@@H]1CN(Cc2cc(C(OCc3cn(Cc4cccc(-c5ccc(C(=O)O)cc5)c4)nn3)C(C)(C)C(=O)O)ccc2C)S(=O)(=O)c2ccccc2O1` (stereo partly drawn) [Example 22, 3′-((4-((2-Carboxy-1-(3-(((R)-4-ethyl-1,1-dioxido-3,4-dihydro-2H-benzo[b][1,4,5]oxathiazepin-2-yl)methyl)-4-methylphenyl)-2-methylpropoxy)methyl)-1H-1,2,3-triazol-1-yl)methyl)-[1,1′-biphenyl]-4-carboxylic acid]: the EC50 was in the range of 1 to 10 nM. The same measure, in the same setting: with `Cc1ccc(C(OCc2cn(Cc3cccc(Cn4cc(C(C)C)nn4)c3)nn2)C(C)(C)C(=O)O)cc1CN1C[C@@H](C)Oc2ccccc2S1(=O)=O` (stereo partly drawn) [Example 37, 3-((1-(3-((4-Isopropyl-1H-1,2,3-triazol-1-yl)methyl)benzyl)-1H-1,2,3-triazol-4-yl)methoxy)-2,2-dimethyl-3-(4-methyl-3-(((R)-4-methyl-1,1-dioxido-3,4-dihydro-2H-benzo[b][1,4,5]oxathiazepin-2-yl)methyl)phenyl)propanoic acid] the figure was 1 to 10 nM; with `CC[C@@H]1CN(Cc2cc(C(OCc3cn(Cc4cccc(C(=O)O)c4)nn3)C(C)(C)C(=O)O)ccc2C)S(=O)(=O)c2ccccc2O1` (stereo partly drawn) [Example 21, 3-((4-((2-Carboxy-1-(3-(((R)-4-ethyl-1,1-dioxido-3,4-dihydro-2H-benzo[b][1,4,5]oxathiazepin-2-yl)methyl)-4-methylphenyl)-2-methylpropoxy)methyl)-1H-1,2,3-triazol-1-yl)methyl)benzoic acid], 100 to 1000 nM.

The assay is the same for the next values; noted with them: NQO1 specific activity induction, 48 hours with compound.
Regarding `Cc1ccc(C(OCc2cn(CC(C)C)nn2)C(C)(C)C(=O)O)cc1CN1C[C@@H](C)Oc2ccccc2S1(=O)=O` (single isomer, unassigned) [Example 16], the EC50 is 10 to 100 nM. Consider `Cc1ccc(C(OCc2cn(C3COC3)nn2)C(C)(C)C(=O)O)cc1CN1C[C@@H](C)Cc2ccncc2S1(=O)=O` (single isomer, unassigned) [Example 103], for which the EC50 fell in the range of 1 to 10 nM.

With `Cc1ccc(C(OCc2cn(C3COC3)nn2)C(C)(C)C(=O)O)cc1CN1C[C@@H](C)Cc2ccncc2S1(=O)=O` (single isomer, unassigned) [Example 102], the EC50 lay in the range of 10 to 100 nM.

For orientation: EC50 means the concentration at which the effect is half-maximal.
